According to article PMC3350394, “Kinetic analysis and test-retest variability of the radioligand [^11C](R)-PK11195 binding to TSPO in the human brain - a PET study in control subjects” (EJNMMI Research, 2012):
Several values for one entry are separate records, joined by “and”; a condition that tells them apart may be missing. Equal entries are not always repeated.

Biological target: TSPO (Homo sapiens, UniProt P30536)
Assay: PET, kinetic compartment analysis (1TCM, 2TCM) with metabolite-corrected arterial input function
Conditions: for BPND (k3/k4) Mean: mean of test and retest; for BPND (k3/k4) Retest / BPND (k3/k4) Test / VT (2TCM): mean(SD); for BPND (k3/k4) Retest / BPND (k3/k4) Test: 6 subjects; for ICC: BPND test-retest
Protocol: Each subject was placed recumbent with the head in the PET system. A head fixation system with an individual plaster helmet was used. A cannula was inserted into the left radial artery and another into the right antecubital vein. A sterile phosphate buffer (pH = 7.4) containing radioligand was injected as a bolus over 2 s into the cubital vein. The cannula was then immediately flushed with a 10-mL saline solution. In each individual, the measurement was repeated after approximately 6 weeks.
The PET system used was ECAT Exact HR 47 (Siemens/CTI, Knoxville, TN, USA), with an in-plane and an axial resolution of 3.6 and 4.0 mm, respectively, full width at half maximum (FWHM). The radioactivity in the brain was measured continuously for 60 min using a pre-programmed sequence of […] (20 s × 9, 30 s × 6, 180 s × 5, 300 s × 5). […] The images were reconstructed with a Hanning filter (FWHM = 2 mm) in a matrix of 128 × 128 × 47 voxels, yielding a voxel size of 2.03 × 2.03 × 3.125 mm. Attenuation correction was done using transmission scan data obtained for each subject.
[^11C](R)-PK11195 binding to TSPO was quantified using kinetic compartment analyses with the metabolite-corrected arterial plasma curve as input function. Two compartment models (one- and two-tissue) were used to fit the model to the TACs. The fractional volume of blood present in the tissue volume and bolus time were estimated for each individual, each occasion, by fitting the whole brain TAC with a two-tissue compartment model.
The one-tissue compartment model (1TCM) describes one compartment which is a composite of free, non-specifically and specifically bound radioligands. The two rate constants, K1 and k2, describe the influx and efflux rates across the blood-brain barrier, respectively.
The two-tissue compartment model (2TCM) has been described in detail in the literature. The two-tissue compartments are defined as the radioactivity concentration of a nondisplaceable radioligand in the brain (CND) and the radioactivity concentration of a radioligand specifically bound to receptors (CB). In this model, four rate constants (K1, k2, k3 and k4) explain the time curves for radioligand in the brain. In short, the four rate constants were determined by curve fitting with a weighted non-linear least squares fitting technique with constraint-restricting parameters between 0 and 0.9. Each initial value for K1, k2, k3 and k4 was 0.5, 0.1, 0.5 and 0.5, respectively. The local minimum of the sum of the squared residuals was determined by iteration.
Regional [^11C](R)-PK11195 binding was expressed using the concept of the total distribution volume (VT), which is defined by the following equation, using kinetic constants obtained from 2TCM [16, 20, 21].
Specific [^11C](R)-PK11195 binding was expressed as binding potential relative to nondisplaceable binding (BPND) as follows:
The fractional volume of blood present in the tissue volume was determined for each individual, each occasion. It was obtained by fitting whole brain TAC with a 2TCM with six parameters (K1, k2, k3, k4, fractional blood volume (VB) and time shift between plasma input function and PET TAC (tbolus)) and parameters VB and tbolus subsequently applied for each brain region.
The reproducibility of two successive PET measurements was analysed by means of descriptive statistics (mean, range, SD, coefficient of variance (CV), difference in measurement (error in percent) and intra-class correlation coefficient (ICC)). The ICC was calculated from the between-subject and within-subject variations, using the expression: […]

[1] = putamen (R), BPND test-retest difference in measurements
[2] = thalamus (L), BPND test-retest difference in measurements
[3] = thalamus (R), BPND test-retest difference in measurements
[4] = thalamus, BPND test-retest difference in measurements
[5] = thalamus, VT (2TCM) test-retest
[6] = white matter, 1TCM, retest (2), individual subjects 1-6
[7] = white matter, 1TCM, retest (2), mean(SD/CV) of 6 subjects
[8] = white matter, 1TCM, test (1), individual subjects 1-6
[9] = white matter, 1TCM, test (1), mean(SD/CV) of 6 subjects
[10] = white matter, 2TCM, retest (2), individual subjects 1-6
[11] = white matter, 2TCM, retest (2), mean(SD/CV) of 6 subjects
[12] = white matter, 2TCM, test (1), individual subjects 1-6
[13] = white matter, 2TCM, test (1), mean(SD/CV) of 6 subjects
[14] = white matter, BPND test-retest difference in measurements
[15] = white matter, VT (2TCM) test-retest
[16] = whole brain, BPND test-retest difference in measurements
[17] = whole brain, VT (2TCM) test-retest

Sequence of TSPO (P30536 whole entry): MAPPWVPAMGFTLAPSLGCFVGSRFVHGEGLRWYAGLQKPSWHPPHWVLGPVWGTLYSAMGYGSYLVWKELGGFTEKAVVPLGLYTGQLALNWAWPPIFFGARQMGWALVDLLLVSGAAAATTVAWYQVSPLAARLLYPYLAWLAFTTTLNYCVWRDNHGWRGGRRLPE

CC[C@@H](C)N([11CH3])C(=O)c1cc2ccccc2c(-c2ccccc2Cl)n1 [[^11C](R)-PK11195]
BPND (k3/k4) Mean (putamen (R), 2TCM): 1.41 | BPND (k3/k4) Retest (putamen (R), 2TCM): 1.56(0.73) | BPND (k3/k4) Test (putamen (R), 2TCM): 1.27(0.48) | ICC (putamen (R)): -0.01 | Error % mean(SD) [1]: -32(72) % | Error range (%) [1]: -145 to 34% | BPND (k3/k4) Mean (putamen, 2TCM): 1.38 | BPND (k3/k4) Retest (putamen, 2TCM): 1.50(0.69) | BPND (k3/k4) Test (putamen, 2TCM): 1.20(0.28) | ICC (putamen): 0.09 | Error range (%) (putamen, BPND test-retest difference in measurements): -138 to 21% | Error % mean(SD) (putamen, VT (2TCM) test-retest): 17(38) % | Error range (%) (putamen, VT (2TCM) test-retest): -32 to 78% | VT (2TCM) (putamen, retest): 0.93(0.19) | VT (2TCM) (putamen, test): 0.83(0.21) | BPND (k3/k4) Mean (thalamus (L), 2TCM): 1.26 | BPND (k3/k4) Retest (thalamus (L), 2TCM): 1.42(0.59) | BPND (k3/k4) Test (thalamus (L), 2TCM): 1.11(0.25) | ICC (thalamus (L)): 0.17 | Error % mean(SD) [2]: -32(64) % | Error range (%) [2]: -136 to 39% | BPND (k3/k4) Mean (thalamus (R), 2TCM): 1.60 | BPND (k3/k4) Retest (thalamus (R), 2TCM): 1.86(0.56) | BPND (k3/k4) Test (thalamus (R), 2TCM): 1.34(0.43) | ICC (thalamus (R)): 0.16 | Error % mean(SD) [3]: -46(50) % | Error range (%) [3]: -136 to 17% | BPND (k3/k4) Mean (thalamus, 2TCM): 1.36 | BPND (k3/k4) Retest (thalamus, 2TCM): 1.53(0.45) | BPND (k3/k4) Test (thalamus, 2TCM): 1.19(0.28) | ICC (thalamus): 0.57 | Error % mean(SD) [4]: -29% and -29(33) % | Error range (%) [4]: -82 to 9% | Error % mean(SD) [5]: -6(29) % | Error range (%) [5]: -47 to 40% | VT (2TCM) (thalamus, retest): 0.80 (0.23) | VT (2TCM) (thalamus, test): 0.90(0.27) | K1 [6]: 0.075 mL/cc/min and 0.027 mL/cc/min and 0.032 mL/cc/min and 0.033 mL/cc/min and 0.042 mL/cc/min and 0.046 mL/cc/min | k2 [6]: 0.085 min⁻¹ and 0.066 min⁻¹ and 0.078 min⁻¹ and 0.064 min⁻¹ and 0.071 min⁻¹ and 0.089 min⁻¹ | K1 [7]: 0.043(0.017/39) mL/cc/min | k2 [7]: 0.076(0.010/13) min^-1 | K1 [8]: 0.049 mL/cc/min and 0.027 mL/cc/min and 0.048 mL/cc/min and 0.030 mL/cc/min and 0.055 mL/cc/min and 0.044 mL/cc/min | k2 [8]: 0.066 min⁻¹ and 0.081 min⁻¹ and 0.072 min⁻¹ and 0.086 min⁻¹ and 0.071 min⁻¹ | K1 [9]: 0.042(0.011/26) mL/cc/min | k2 [9]: 0.074(0.008/11) min^-1 | BPND (k3/k4) Mean (white matter, 2TCM): 1.84 | BPND (k3/k4) Retest (white matter, 2TCM): 1.78(0.42) | BPND (k3/k4) Test (white matter, 2TCM): 1.90(0.42) | K1 [10]: 0.060 mL/cc/min and 0.097 mL/cc/min and 0.035 mL/cc/min and 0.045 mL/cc/min and 0.039 mL/cc/min and 0.051 mL/cc/min | k2 [10]: 0.206 min⁻¹ and 0.209 min⁻¹ and 0.164 min⁻¹ and 0.223 min⁻¹ and 0.126 min⁻¹ and 0.144 min⁻¹ | k3 [10]: 0.042 min⁻¹ and 0.061 min⁻¹ and 0.041 min⁻¹ and 0.046 min⁻¹ and 0.028 min⁻¹ and 0.033 min⁻¹ | k4 [10]: 0.025 min⁻¹ and 0.045 min⁻¹ and 0.020 min⁻¹ and 0.019 min⁻¹ and 0.018 min⁻¹ and 0.022 min⁻¹ | K1 [11]: 0.055(0.023/42) mL/cc/min | k2 [11]: 0.179(0.040/22) min^-1 | k3 [11]: 0.042(0.011/26) min^-1 | k4 [11]: 0.025(0.010/40) min^-1 | K1 [12]: 0.061 mL/cc/min and 0.032 mL/cc/min and 0.035 mL/cc/min and 0.067 mL/cc/min and 0.056 mL/cc/min | k2 [12]: 0.154 min⁻¹ and 0.124 min⁻¹ and 0.184 min⁻¹ and 0.138 min⁻¹ and 0.165 min⁻¹ and 0.176 min⁻¹ | k3 [12]: 0.043 min⁻¹ and 0.024 min⁻¹ and 0.034 min⁻¹ and 0.037 min⁻¹ | k4 [12]: 0.026 min⁻¹ and 0.019 min⁻¹ and 0.014 min⁻¹ and 0.012 min⁻¹ and 0.030 min⁻¹ | K1 [13]: 0.052(0.015/29) mL/cc/min | k2 [13]: 0.157(0.02/13) min^-1 | k3 [13]: 0.034(0.009/26) min^-1 | k4 [13]: 0.020(0.007/35) min^-1 | ICC (white matter): 0.73 | Error % mean(SD) [14]: -4% and -8% and -8(18) % | Error range (%) [14]: -25 to 21% | Error % mean(SD) [15]: -9(25) % | Error range (%) [15]: -42 to 28% | VT (2TCM) (white matter, retest): 0.88 (0.19) | VT (2TCM) (white matter, test): 0.99(0.17) | BPND (k3/k4) Mean (whole brain, 2TCM): 1.67 | BPND (k3/k4) Retest (whole brain, 2TCM): 1.68(0.35) | BPND (k3/k4) Test (whole brain, 2TCM): 1.65(0.33) | ICC (whole brain): 0.57 | Error % mean(SD) [16]: 4% and -4(19) % | Error range (%) [16]: -25 to 22% | Error % mean(SD) [17]: -7(20) % | Error range (%) [17]: -38 to 21% | VT (2TCM) (whole brain, retest): 0.75 (0.16) | VT (2TCM) (whole brain, test): 0.82(0.18)
